ChEMBL document CHEMBL1155743, “New bromoditerpenes from the red alga Sphaerococcus coronopifolius” (J Nat Prod, 2001)
Values after ≈ are worked out from the molar mass of the structure shown.

Assays:
Staphylococcus aureus = experiment: Antibacterial activity against Staphylococcus aureus ATCC 6538 by disk diffusion assay; format: functional
Plasmodium falciparum = experiment: Antimalarial activity against chloroquine-resistant Plasmodium falciparum FCB1 in human blood by [3H]hypoxanthine uptake; format: functional, organism-based

Row | MIC (Staphylococcus aureus) [µM] | Compound | IC50 (Plasmodium falciparum) [nM]
1 | 0.146 (≈ 0.0701 µg/mL) | CC(C)[C@@H]1C=C[C@H](O)[C@H]2[C@@H]3[C@](C)(O)[C@@H](O)C[C@H](Br)[C@@]3(C)CC[C@@]21CBr | –
2 | 0.104 (≈ 0.0497 µg/mL) | CC(C)[C@@H]1C=CC(=O)[C@H]2[C@@H]3[C@](C)(O)[C@@H](O)C[C@H](Br)[C@@]3(C)CC[C@]12CBr [BROMOSPHAERONE] | –
3 | – | CC(C)[C@@H]1CC=C[C@H]2[C@H]3[C@@](C)(C=CC(=O)[C@@]3(C)O)CC[C@]12CBr [SPHAEROCOCCENOL A] | 1000
